US20250170140A1, “PHARMACEUTICAL COMPOSITION FOR PREVENTING OR TREATING CANCER COMPRISING CARNITINE ACYLCARNITINE CARRIER INHIBITOR AND PEROXISOMAL BETA OXIDATION INHIBITOR” (priority 2021, published 2025)

Assays:
Assay type in all cases: cell-based
[1] = system: PANC-1 cells; test: SRB assay, pancreatic cancer cell line PANC-1
Procedure: (§1) As a comparison, omeprazole (KN510) and trimetazidine (KN713), a 3-ketoacyl CoA thiolase inhibitor, were co-treated. […] After cell inoculation, 96-well cell culture plates were incubated for 24 hours before the addition of experimental drugs. […] The cells were then incubated in a CO2 incubator for 48 hours, after which the assay was terminated by the addition of cold TCA. Cells were fixed in situ by gently adding 50 μl of cold 50% (w/v) TCA (final concentration: 10% TCA) and incubated at 4° C. for 60 min. The supernatant was discarded, and the plate was washed five times with distilled water and air dried. Sulforhodamine B (SRB) solution (100 μl) of 0.4% (w/v) in 1% acetic acid was added to each well, and the plate was left at room temperature for 10 min. After staining, unbound dye was removed by washing five times with 1% acetic acid, and the plate was air-dried. The bound dye was then solubilized with 10 mM trizma base, and the absorbance was recorded at 515 nm using an automated plate reader. […] The predicted synergistic activity of a combination of the present invention can be calculated using the Colby Equation in Equation 1 (S.R. Colby, Weeds, 1967, pp. 15, 20-22): In the present invention, the actual measure of anti-cancer activity of the combination treatment was the inhibition rate of cancer cell growth (%), and the predicted value (E) of the combination treatment was measured by substituting it into the above Colby Equation.

[2] = system: U251 cells; test: SRB assay, glioblastoma cell line U251
Procedure: as §1

[3] = system: ACHN cells; test: SRB assay, renal cell carcinoma cell line ACHN
Procedure: as §1

[4] = system: SR cells; test: SRB assay, leukemia cell line SR
Procedure: as §1

[5] = system: OVCAR-8 cells; test: SRB assay, ovarian cancer cells OVCAR-8
Procedure: as §1

[6] = system: Hep-3B cells; test: SRB assay, liver cancer cell line Hep-3B
Procedure: as §1

[7] = system: K562 cells; test: SRB assay, leukemia cell line K562
Procedure: as §1

[8] = Homo sapiens, KN510 100 μM, read-out: Inhibition rate of cancer cell growth (%) (Actual value)
[9] = Homo sapiens, KN510 200 μM, read-out: Inhibition rate of cancer cell growth (%) (Actual value)
[10] = Homo sapiens, KN714 5 μM, read-out: Inhibition rate of cancer cell growth (%) (Actual value)
[11] = Homo sapiens, KN714 10 μM, read-out: Inhibition rate of cancer cell growth (%) (Actual value)

## COc1ccc2[nH]c([S+]([O-])Cc3ncc(C)c(OC)c3C)nc2c1 (centres unmarked) [KN510, omeprazole]
[1]; [8]
  inhibition at 100 µM: 55.5%
[1]; [9]
  inhibition at 200 µM: 89%
[1]; KN510 100 μM
  Cancer cell growth rate Average (%): 44.47%
[1]; KN510 200 μM
  Cancer cell growth rate Average (%): 10.96%
[2]; Homo sapiens, U-251, KN510 100 μM, read-out: Inhibition rate of cancer cell growth (%) (Actual value)
  inhibition at 100 µM: 26.5%
[2]; Homo sapiens, U-251, KN510 200 μM, read-out: Inhibition rate of cancer cell growth (%) (Actual value)
  inhibition at 200 µM: 44.9%
[2]; KN510 100 μM
  Cancer cell growth rate Average (%): 73.51%
[2]; KN510 200 μM
  Cancer cell growth rate Average (%): 55.11%
[3]; [8]
  inhibition at 100 µM: 38.9%
[3]; [9]
  inhibition at 200 µM: 80.1%
[3]; KN510 100 μM
  Cancer cell growth rate Average (%): 61.12%
[3]; KN510 200 μM
  Cancer cell growth rate Average (%): 19.93%
[4]; [8]
  inhibition at 100 µM: 35.1%
[4]; [9]
  inhibition at 200 µM: 70.1%
[4]; KN510 100 μM
  Cancer cell growth rate Average (%): 64.90%
[4]; KN510 200 μM
  Cancer cell growth rate Average (%): 29.89%
[5]; [8]
  inhibition at 100 µM: 44.5%
[5]; [9]
  inhibition at 200 µM: 63.3%
[5]; KN510 100 μM
  Cancer cell growth rate Average (%): 55.49%
[5]; KN510 200 μM
  Cancer cell growth rate Average (%): 36.66%
[6]; Homo sapiens, Hep3B, KN510 100 μM, read-out: Inhibition rate of cancer cell growth (%) (Actual value)
  inhibition at 100 µM: 15.1%
[6]; Homo sapiens, Hep3B, KN510 200 μM, read-out: Inhibition rate of cancer cell growth (%) (Actual value)
  inhibition at 200 µM: 40.1%
[6]; KN510 100 μM
  Cancer cell growth rate Average (%): 84.95%
[6]; KN510 200 μM
  Cancer cell growth rate Average (%): 59.89%
[7]; [8]
  inhibition at 100 µM: 44.8%
[7]; [9]
  inhibition at 200 µM: 73%
[7]; KN510 100 μM
  Cancer cell growth rate Average (%): 55.18%
[7]; KN510 200 μM
  Cancer cell growth rate Average (%): 27.01%

## CSc1ccc2c(c1)N(CCC1CCCCN1C)c1ccccc1S2 (centres unmarked) [KN714, 10-[2-(1-methyl-2-piperidyl)ethyl]-2-(methylthio)phenothiazine]
[1]; [10]
  inhibition at 5 µM: 10.2%
[1]; [11]
  inhibition at 10 µM: 70%
[1]; KN714 5 μM
  Cancer cell growth rate Average (%): 89.85%
[1]; KN714 10 μM
  Cancer cell growth rate Average (%): 30.04%
[2]; Homo sapiens, U-251, KN714 5 μM, read-out: Inhibition rate of cancer cell growth (%) (Actual value)
  inhibition at 5 µM: 40%
[2]; Homo sapiens, U-251, KN714 10 μM, read-out: Inhibition rate of cancer cell growth (%) (Actual value)
  inhibition at 10 µM: 121%
[2]; KN714 5 μM
  Cancer cell growth rate Average (%): 59.99%
[2]; KN714 10 μM
  Cancer cell growth rate Average (%): −20.54%
[3]; [10]
  inhibition at 5 µM: -2.76%
[3]; [11]
  inhibition at 10 µM: 29.6%
[3]; KN714 5 μM
  Cancer cell growth rate Average (%): 102.76%
[3]; KN714 10 μM
  Cancer cell growth rate Average (%): 70.39%
[4]; [10]
  inhibition at 5 µM: 37.2%
[4]; [11]
  inhibition at 10 µM: 111%
[4]; KN714 5 μM
  Cancer cell growth rate Average (%): 62.75%
[4]; KN714 10 μM
  Cancer cell growth rate Average (%): −11.34%
[5]; [10]
  inhibition at 5 µM: 6.92%
[5]; [11]
  inhibition at 10 µM: 55.1%
[5]; KN714 5 μM
  Cancer cell growth rate Average (%): 93.08%
[5]; KN714 10 μM
  Cancer cell growth rate Average (%): 44.89%
[6]; Homo sapiens, Hep3B, KN714 5 μM, read-out: Inhibition rate of cancer cell growth (%) (Actual value)
  inhibition at 5 µM: 6.06%
[6]; Homo sapiens, Hep3B, KN714 10 μM, read-out: Inhibition rate of cancer cell growth (%) (Actual value)
  inhibition at 10 µM: 29.9%
[6]; KN714 5 μM
  Cancer cell growth rate Average (%): 93.94%
[6]; KN714 10 μM
  Cancer cell growth rate Average (%): 70.15%
[7]; [10]
  inhibition at 5 µM: 57.8%
[7]; [11]
  inhibition at 10 µM: 102%
[7]; KN714 5 μM
  Cancer cell growth rate Average (%): 42.25%
[7]; KN714 10 μM
  Cancer cell growth rate Average (%): −1.56%
